Experimental data: publication PMC9133069, “In vitro proliferation and long-term preservation of functional primary rat hepatocytes in cell fibers” (Scientific Reports, 2022)

Key:
Assay type in all cases: cell-based
primary rat hepatocytes [1] = assay: Hepatotoxicity assessment, albumin secretion (ELISA) after 24 h compound treatment; conditions: Hepatocyte, 24 h treatment
Procedure: (§1) To explore the possible application of cell fibers encapsulating primary hepatocytes in the field of drug screening, we evaluated the potential of cell fibers for in vitro detection of hepatotoxicity of drugs. […] First, primary rat hepatocytes were encapsulated into core–shell hydrogel microfibers at the initial cell seeding density of 2.5 × 10^7 cells mL^−1 and were cultured in the media supplemented with 3T3CM. Secondly, the concentration-reaction curves for these compounds were obtained through the assays of cellular viability, albumin secretion, and urea synthesis performed at different time points: 4 days, 7 days, 14 days, and 30 days after the start of culture. Thirdly, based upon these concentration-reaction curves (Figs. S4–S7), the corresponding IC50 values were estimated. Moreover, we attempted to compare these IC50 values with those obtained using another culture system where primary rat hepatocytes were cultured on collagen-coated 24-well plates.
(§2) The amount of albumin in culture medium was measured using an enzyme-linked immunosorbent assay kit (rat albumin ELISA kit, Bethyl Laboratories, Montgomery, TX). The amount of urea in culture medium was measured using an assay kit (QuantiChrom urea assay kit, BioAssay Systems, Hayward, CA). For both assays, respective absorbency at 450 nm or at 430 nm was measured using a microplate reader (MTP-810, Corona Electric, and Hitachi, Japan). All the values were normalized by the number of hepatocytes and the data were expressed as protein amount 10^–6 cells time^−1.
(§3) Primary rat hepatocytes cultured either in cell fibers or in collagen-coated 24-well plates were treated for 24 h with either of these compounds diluted in media at intended concentrations, and then the respective compound-treated hepatocytes underwent assays of their different specific characteristics: cell viability, albumin secretion, or urea synthesis. Data from drug-treated hepatocytes were normalized to the respective untreated controls in the same culture system. By plotting these normalized data on y-axis and the concentrations of compounds on x-axis, the concentration-reaction curves were generated.
(§4) Culture of primary rat hepatocytes in cell fibers
(§5) After formation of core-shell hydrogel microfibers encapsulating primary rat hepatocytes, they were incubated at 37 °C for more than 15 minutes to set the ECM proteins at the core region into gels. Subsequently, primary rat hepatocytes in cell fibers were cultured in DMEM supplemented with 1% Glutamax, 10% heat-inactivated FBS, 100 IU mL-1 penicillin, 100 mg mL-1 streptomycin, insulin, 6.25 mg mL-1 transferrin, 6.25 ng mL-1 selenous acid (Lonza, Tokyo, Japan), and 1mM HEPES at 37 °C under a water saturated 5% CO2 environment; this medium is the one that have been optimized to […]
(§6) were performed every 48 hours. […]
Culture of primary rat hepatocytes using collagen-coated 24-well plates 5x10^5 primary rat hepatocytes freshly isolated were seeded on collagen-coated 24-well plates (Corning Japan K.K, Tokyo, Japan). The primary rat hepatocytes were first cultured in Dulbecco’s Modified Eagle’s Medium (DMEM; Gibco, Tokyo, Japan) supplemented with 1% Glutamax (Life Technologies, Tokyo, Japan), 10% heat-inactivated foetal bovine serum (Equitech-Bio, Kerrville, TX), 100 IU mL-1 penicillin (Gibco), 100 mg mL-1 streptomycin (Gibco), and 1mM HEPES (Sigma Aldrich, Japan) at 37 °C under a water saturated 5% CO2 environment. […]

primary rat hepatocytes [2] = assay: Hepatotoxicity assessment, urea synthesis after 24 h compound treatment; conditions: Hepatocyte, 24 h treatment
Procedure: as §1, §2, §3, §4, §5, §6
Culture of primary rat hepatocytes using collagen-coated 24-well plates 5x10^5 primary rat hepatocytes freshly isolated were seeded on collagen-coated 24-well plates (Corning Japan K.K, Tokyo, Japan). The primary rat hepatocytes were first cultured in Dulbecco’s Modified Eagle’s Medium (DMEM; Gibco, Tokyo, Japan) supplemented with 1% Glutamax (Life Technologies, Tokyo, Japan), 10% heat-inactivated foetal bovine serum (Equitech-Bio, Kerrville, TX), 100 IU mL-1 penicillin (Gibco), 100 mg mL-1 streptomycin (Gibco), and 1mM HEPES (Sigma Aldrich, Japan) at 37 °C under a water saturated 5% CO2 environment. Three hours after the beginning of culture, media were changed and the primary rat hepatocytes started to be cultured in William’s medium E (Life Technologies) supplemented with 1% Glutamax, 100 IU mL-

primary rat hepatocytes [3] = assay: Hepatotoxicity assessment, cell viability (trypan blue exclusion) after 24 h compound treatment; conditions: Hepatocyte, 24 h treatment
Procedure: as §1, §3, §4, §5, §6
Culture of primary rat hepatocytes using collagen-coated 24-well plates 5x10^5 primary rat hepatocytes freshly isolated were seeded on collagen-coated 24-well plates (Corning Japan K.K, Tokyo, Japan). The primary rat hepatocytes were first cultured in Dulbecco’s Modified Eagle’s Medium (DMEM; Gibco, Tokyo, Japan) supplemented with 1% Glutamax (Life Technologies, Tokyo, Japan), 10% heat-inactivated foetal bovine serum (Equitech-Bio, Kerrville, TX), 100 IU mL-1 penicillin (Gibco), 100 mg mL-1 streptomycin (Gibco), and 1mM HEPES (Sigma Aldrich, Japan)

primary rat hepatocytes [4] = assay: Assessment of hepatocyte proliferation inhibition in cell fibers
Source text: Practically, core–shell hydrogel microfibers were fabricated to encapsulate primary rat hepatocytes at the initial cell seeding density of 2.5 × 10^7 cells mL^−1.
For that, we first fabricated cell fibers encapsulating primary rat hepatocytes at the initial cell seeding density of 2.5 × 10^7 cells mL^−1. […] Subsequently, we compared these two groups over time by analyzing their morphology and cell number.
Counting primary rat hepatocytes and evaluating their viability per cell fiber were performed three times and averaged. Prior to those procedures, the alginate shells were removed, and the primary rat hepatocytes were retrieved. To remove the shells of the cell fibers, 4 mg mL^−1 of alginate lyase (Sigma Aldrich) in Dulbecco's Phosphate-Buffered Saline (DPBS) (+) was added at a 1:100 ratio to the culture media, and the media were incubated for 15 min. To retrieve primary rat hepatocytes from ECM, 4 mg mL^−1 of collagenase (Sigma-Aldrich) in DPBS (+) was added at a 1:50 ratio to the culture media and the media were incubated for 5 min. The cell number of primary rat hepatocytes per cell fiber was counted by using cell-counting plate (WakenBtech, Japan). The cellular viabilities were examined by the trypan blue dye-exclusion test.
Then immediately, this working solution was diluted in media at intended concentrations. The changeover between starting and stopping exposure to retrorsine was done by medium replacement; the culture media surrounding the cell fibers can be completely removed from petri dishes to be replaced with new ones while keeping the cell fibers intact. The proliferation rate of the hepatocytes in the experimental groups was calculated by dividing the numbers of the hepatocytes that proliferated from 2 days of culture to 3 days of culture in the experimental groups with the ones in the control group.

[5] = cell fibers (core–shell hydrogel microfibres), culture duration 4 days
[6] = cell fibers (core–shell hydrogel microfibres), culture duration 7 days
[7] = cell fibers (core–shell hydrogel microfibres), culture duration 14 days
[8] = cell fibers (core–shell hydrogel microfibres), culture duration 30 days
[9] = collagen-coated 24-well plates, culture duration 4 days

CC(=O)Nc1ccc(O)cc1 [Acetaminophen]
IC50 (primary rat hepatocytes [1]; [5]): 16.7 mM
IC50 (primary rat hepatocytes [1]; [6]): 16.4 mM
IC50 (primary rat hepatocytes [1]; [7]): 16.3 mM
IC50 (primary rat hepatocytes [1]; [8]): 15.9 mM
IC50 (primary rat hepatocytes [1]; [9]): 8.51 ± 0.089 mM
IC50 (primary rat hepatocytes [2]; [5]): 17 mM
IC50 (primary rat hepatocytes [2]; [6]): 15.9 mM
IC50 (primary rat hepatocytes [2]; [7]): 15.9 mM
IC50 (primary rat hepatocytes [2]; [8]): 17.3 mM
IC50 (primary rat hepatocytes [2]; [9]): 24 mM
IC50 (primary rat hepatocytes [3]; [5]): 18.3 mM
IC50 (primary rat hepatocytes [3]; [6]): 18.6 mM
IC50 (primary rat hepatocytes [3]; [7]): 18.9 mM
IC50 (primary rat hepatocytes [3]; [8]): 18.9 mM
IC50 (primary rat hepatocytes [3]; [9]): 19.3 mM

retrorsine
number of the cells in cell fibers during exposure (primary rat hepatocytes [4]; 10 mg mL^−1, 24 h from day 2 to day 3 of culture, media containing 3T3CM): did not change
IC50 value, inhibition of primary rat hepatocyte proliferation (primary rat hepatocytes [4]; cell fibers with 3T3CM, 24 h exposure after 2 days of culture): 3100 ± 100 µg/mL
IC50 (primary rat hepatocytes [4]; cell fibers with 3T3CM, 24 h exposure after 2 days of culture, converted from mg mL^−1): ~8.82 mM

O=C(O)Cc1ccccc1Nc1c(Cl)cccc1Cl [Diclofenac]
IC50 (primary rat hepatocytes [2]; [9]): 0.385 ± 0.041 mM
IC50 (primary rat hepatocytes [3]; [9]): 0.472 ± 0.098 mM
